System: 349418-098-R-PDC complex spheroid viability
Assay: Anticancer human tumor 349418-098-R-PDC patient-derived lung adenocarcinoma cell line growth inhibition [RAS]
Conditions: for IC50: curve of first compound; for viability, T/C: stronger effect = lower value
Source text: RAS pathway inhibitors in Combinations in Complex Spheroids
A high-throughput screen of multi-cell type tumor spheroids was designed to identify active combinations of RAS pathway inhibitors and targeted small molecules. Complex spheroids include a stromal component modeled by human endothelial cells (HUVEC) and fibroblasts modeled by human mesenchymal stem cells (MSCs). The concentration ranges selected for each drug and investigational agent were based upon clinically achievable concentrations if the clinical Cmax of the agent was known.
Compounds. The drugs and investigational agents: abemaciclib (NSC768073), cobimetinib (NSC768068), divarasib (GDC6063, NSC841802), docetaxel (NSC628503), GDC-1971 (RLY-1971, NSC841576), gemcitabine (NSC613327), inavolisib (NSC800729), ipatasertib (NSC767898), KB-0742 (NSC834161), MRTX-1133 (NSC836407), osimertinib (NSC779217), RMC-4630 (NSC839698), RMC-6236 (NSC851965), RMC-6291 (NSC852671), Ro-3306 (NSC812927), sapanisertib (NSC764658), SN-38 (NSC673596), staurosporine (NSC755774), SY5609 (NSC837396), and tovorafenib (DAY101, NSC766906), were obtained from the National Cancer Institute (NCI) Developmental Therapeutics Program Chemical Repository. The FDA-approved anticancer drug set is available from the NCI Developmental Therapeutics Program. […] The stock solutions were prepared in dimethyl sulfoxide (DMSO, Sigma-Aldrich, St. Louis, MO, cat. D2650) at 800-fold the tested concentration and stored at -70 degrees C prior to their use. All drugs and investigational agents were tested over a range starting from a high concentration at or near the clinical Cmax and decreasing in half-log increments. If the clinical Cmax for an agent had not been determined, the highest concentration tested was 10 microM.
Cell Culture. All cells were maintained in an incubator at 37 degrees C and 5% CO2 with 95% humidity. The PDC lines were cultured according to standard operating procedures established by the NCI PDMR. All PDCs were thawed and cultured in Matrigel-coated flasks prepared with a working solution of 1X Ham's F-12 nutrient mix, without supplementation (Invitrogen, Waltham, MA, cat. 11765054), 100 U/mL penicillin-streptomycin (Invitrogen, cat. 15140122), and 2.5% Matrigel (Corning Inc., Corning, NY, cat. 354248) for the first three passages. The 362531-283-R-J2-PDC and 782815-120-R-J1-PDC lines were cultured in 6C/Colon 1B media, which includes advanced DMEM/F-12 (Thermo Fisher Scientific, cat. 12634028), 10 mM HEPES (Thermo Fisher Scientific, cat. 15630080), 1X GlutaMAX supplement (Thermo Fisher Scientific, cat. 35050061), 0.1 mg/mL primocin (InvivoGen, San Diego, CA, cat. ant-pm-2), 10% defined fetal bovine serum, heat inactivated (HyClone Laboratories Inc., Logan, UT, cat. SH30070.03HI), 50% L-WRN conditioned media (ATCC, cat. CRL-3276), 1.25 mM N-Acetyl-L-cysteine (Sigma-Aldrich, cat. A9165), 10 mM nicotinamide (Sigma-Aldrich, cat. N0636), 1X B-27 supplement (Thermo Fisher Scientific, cat. 17504044), 1X N-2 supplement (Thermo Fisher Scientific, cat. 17502048), 50 ng/mL human EGF (Thermo Fisher Scientific, cat. PHG0311), and 10 microM Y-27632 dihydrochloride (Tocris Bioscience, cat. 1254). The K12877-001-R-J1-PDC line was cultured in 6I media, which includes all 6C/Colon 1B media plus 10 ng/mL human FGF-10 (PeproTech, cat. 100-26), 1 ng/mL human FGF-2 (PeproTech, cat. 100-18B), 1 µM prostaglandin E2 (Tocris Bioscience, cat. 2296), […] hydrocortisone (Sigma-Aldrich, cat. H4001), and […] bovine insulin (Sigma-Aldrich, cat. I6634). The K86415-001-R-J1-PDC line was cultured in 6D media, which includes all 6C/Colon 1B media components minus the L-WRN conditioned media. The 485176-168-R4-J1-PDC was cultured in PANC media, which includes all 6C/Colon 1B media plus 100 ng/mL human FGF-10 (PeproTech, cat. 100-26), 500 nM SB-431542 (Selleckchem, cat. S1067), and 10 nM gastrin (Tocris Bioscience, cat. 3006). […]

[1] = second compound 0.000949 µM, first compound 0.00316 µM
[2] = second compound 0.000949 µM, first compound 0.01 µM
[3] = second compound 0.000949 µM, first compound 0.0316 µM
[4] = second compound 0.000949 µM, first compound 0.1 µM
[5] = second compound 0.003 µM, first compound 0.00316 µM
[6] = second compound 0.003 µM, first compound 0.01 µM
[7] = second compound 0.003 µM, first compound 0.0316 µM
[8] = second compound 0.003 µM, first compound 0.1 µM
[9] = second compound 0.00949 µM, first compound 0.00316 µM
[10] = second compound 0.00949 µM, first compound 0.01 µM
[11] = second compound 0.00949 µM, first compound 0.0316 µM
[12] = second compound 0.00949 µM, first compound 0.1 µM
[13] = second compound 0.03 µM, first compound 0.00316 µM
[14] = second compound 0.03 µM, first compound 0.01 µM
[15] = second compound 0.03 µM, first compound 0.0316 µM
[16] = second compound 0.03 µM, first compound 0.1 µM
[17] = second compound 0.0949 µM, first compound 0.00316 µM
[18] = second compound 0.0949 µM, first compound 0.01 µM
[19] = second compound 0.0949 µM, first compound 0.0316 µM
[20] = second compound 0.0949 µM, first compound 0.1 µM
[21] = second compound 0.3 µM, first compound 0.00316 µM
[22] = second compound 0.3 µM, first compound 0.01 µM
[23] = second compound 0.3 µM, first compound 0.0316 µM
[24] = second compound 0.3 µM, first compound 0.1 µM
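Also: spheroids exposed to compound for seven days before viability readout.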

With `O=C(c1ccc(F)c(F)c1Nc1ccc(I)cc1F)N1CC(O)([C@@H]2CCCCN2)C1` + CCn1c(-c2cc(N3CCN(C)CC3)cnc2C(C)OC)c2c3cc(ccc31)-c1csc(n1)CC(NC(=O)C1CC1C)C(=O)N1CCCC(N1)C(=O)OCC(C)(C)C2 the IC50 (second compound 0.000949 µM) was less than 3.16 nM, the IC50 (second compound 0.003 µM) was less than 3.16 nM and the IC50 (second compound 0.00949 µM) was less than 3.16 nM. For the same compound, the IC50 (second compound 0.03 µM) was less than 3.16 nM, the IC50 (second compound 0.0949 µM) was less than 3.16 nM and the IC50 (second compound 0.3 µM) was less than 3.16 nM. For the same compound, the viability, T/C [1] was 25.6%, the viability, T/C [2] was 15.3% and the viability, T/C [3] was 12.3%. It also gave a viability, T/C [4] of 7.55%, a viability, T/C (second compound 0.000949 µM, first compound 0.316 µM) of 6.32% and a viability, T/C (second compound 0.000949 µM, first compound 1 µM) of 4.06%. The viability, T/C [5] was 26.8%, the viability, T/C [6] was 17.7% and the viability, T/C [7] was 11%. The viability, T/C [8] was 7.55%, the viability, T/C (second compound 0.003 µM, first compound 0.316 µM) was 5.82% and the viability, T/C (second compound 0.003 µM, first compound 1 µM) was 4.4%. For the same compound, the viability, T/C [9] was 20%, the viability, T/C [10] was 7.54% and the viability, T/C [11] was 7.52%. It also gave a viability, T/C [12] of 5.46%, a viability, T/C (second compound 0.00949 µM, first compound 0.316 µM) of 5.26% and a viability, T/C (second compound 0.00949 µM, first compound 1 µM) of 4.12%. The viability, T/C [13] was 14.1%, the viability, T/C [14] was 8.8% and the viability, T/C [15] was 6.96%. The viability, T/C [16] was 5.38%, the viability, T/C (second compound 0.03 µM, first compound 0.316 µM) was 5.09% and the viability, T/C (second compound 0.03 µM, first compound 1 µM) was 4.3%. It also gave a viability, T/C [17] of 9.09%, a viability, T/C [18] of 6.88% and a viability, T/C [19] of 5.8%. For the same compound, the viability, T/C [20] was 5.07%, the viability, T/C (second compound 0.0949 µM, first compound 0.316 µM) was 5.29% and the viability, T/C (second compound 0.0949 µM, first compound 1 µM) was 4.24%. The viability, T/C [21] was 11.8%, the viability, T/C [22] was 7.65% and the viability, T/C [23] was 5.68%. The viability, T/C [24] was 5.13%, the viability, T/C (second compound 0.3 µM, first compound 0.316 µM) was 4.83% and the viability, T/C (second compound 0.3 µM, first compound 1 µM) was 4.09%.

For `CC(C)n1nc(-c2ccc3oc(N)nc3c2)c2c(N)ncnc21` + CCn1c(-c2cc(N3CCN(C)CC3)cnc2C(C)OC)c2c3cc(ccc31)-c1csc(n1)CC(NC(=O)C1CC1C)C(=O)N1CCCC(N1)C(=O)OCC(C)(C)C2, the IC50 (second compound 0.000949 µM) was 2.3 nM, the IC50 (second compound 0.003 µM) was 3.06 nM and the IC50 (second compound 0.00949 µM) was 2.79 nM. The IC50 (second compound 0.03 µM) was 3.57 nM, the IC50 (second compound 0.0949 µM) was 1.99 nM and the IC50 (second compound 0.3 µM) was 3.49 nM. The viability, T/C (second compound 0.000949 µM, first compound 0.000316 µM) was 97.9%, the viability, T/C (second compound 0.000949 µM, first compound 0.001 µM) was 75.8% and the viability, T/C [1] was 37.8%. For the same compound, the viability, T/C [2] was 22.4%, the viability, T/C [3] was 8.76% and the viability, T/C [4] was 7.18%. It also gave a viability, T/C (second compound 0.003 µM, first compound 0.000316 µM) of 87%, a viability, T/C (second compound 0.003 µM, first compound 0.001 µM) of 66.9% and a viability, T/C [5] of 54.9%. It also gave a viability, T/C [6] of 18.6%, a viability, T/C [7] of 7.75% and a viability, T/C [8] of 6.04%. For the same compound, the viability, T/C (second compound 0.00949 µM, first compound 0.000316 µM) was 106%, the viability, T/C (second compound 0.00949 µM, first compound 0.001 µM) was 84.4% and the viability, T/C [9] was 46.3%. It also gave a viability, T/C [10] of 16.6%, a viability, T/C [11] of 7.24% and a viability, T/C [12] of 5.27%. It also gave a viability, T/C (second compound 0.03 µM, first compound 0.000316 µM) of 100%, a viability, T/C (second compound 0.03 µM, first compound 0.001 µM) of 98.3% and a viability, T/C [13] of 54.4%. The viability, T/C [14] was 11.8%, the viability, T/C [15] was 8.66% and the viability, T/C [16] was 6.68%. For the same compound, the viability, T/C (second compound 0.0949 µM, first compound 0.000316 µM) was 111%, the viability, T/C (second compound 0.0949 µM, first compound 0.001 µM) was 67.4% and the viability, T/C [17] was 39.3%. The viability, T/C [18] was 18.7%, the viability, T/C [19] was 7.91% and the viability, T/C [20] was 5.64%. The viability, T/C (second compound 0.3 µM, first compound 0.000316 µM) was 94.7%, the viability, T/C (second compound 0.3 µM, first compound 0.001 µM) was 87.2% and the viability, T/C [21] was 53.6%. It also gave a viability, T/C [22] of 14.6%, a viability, T/C [23] of 8.69% and a viability, T/C [24] of 6.51%.

Reference: PubChem BioAssay AID2060904 (Molecular Pharmacology Branch, DTP, NCI, 2025)
